In one assay the target is T1, LATS2 (Homo sapiens, UniProt Q9NRM7).
T1 construct: purchased Carna Biosciences
T1 sequence (Q9NRM7 1-1088): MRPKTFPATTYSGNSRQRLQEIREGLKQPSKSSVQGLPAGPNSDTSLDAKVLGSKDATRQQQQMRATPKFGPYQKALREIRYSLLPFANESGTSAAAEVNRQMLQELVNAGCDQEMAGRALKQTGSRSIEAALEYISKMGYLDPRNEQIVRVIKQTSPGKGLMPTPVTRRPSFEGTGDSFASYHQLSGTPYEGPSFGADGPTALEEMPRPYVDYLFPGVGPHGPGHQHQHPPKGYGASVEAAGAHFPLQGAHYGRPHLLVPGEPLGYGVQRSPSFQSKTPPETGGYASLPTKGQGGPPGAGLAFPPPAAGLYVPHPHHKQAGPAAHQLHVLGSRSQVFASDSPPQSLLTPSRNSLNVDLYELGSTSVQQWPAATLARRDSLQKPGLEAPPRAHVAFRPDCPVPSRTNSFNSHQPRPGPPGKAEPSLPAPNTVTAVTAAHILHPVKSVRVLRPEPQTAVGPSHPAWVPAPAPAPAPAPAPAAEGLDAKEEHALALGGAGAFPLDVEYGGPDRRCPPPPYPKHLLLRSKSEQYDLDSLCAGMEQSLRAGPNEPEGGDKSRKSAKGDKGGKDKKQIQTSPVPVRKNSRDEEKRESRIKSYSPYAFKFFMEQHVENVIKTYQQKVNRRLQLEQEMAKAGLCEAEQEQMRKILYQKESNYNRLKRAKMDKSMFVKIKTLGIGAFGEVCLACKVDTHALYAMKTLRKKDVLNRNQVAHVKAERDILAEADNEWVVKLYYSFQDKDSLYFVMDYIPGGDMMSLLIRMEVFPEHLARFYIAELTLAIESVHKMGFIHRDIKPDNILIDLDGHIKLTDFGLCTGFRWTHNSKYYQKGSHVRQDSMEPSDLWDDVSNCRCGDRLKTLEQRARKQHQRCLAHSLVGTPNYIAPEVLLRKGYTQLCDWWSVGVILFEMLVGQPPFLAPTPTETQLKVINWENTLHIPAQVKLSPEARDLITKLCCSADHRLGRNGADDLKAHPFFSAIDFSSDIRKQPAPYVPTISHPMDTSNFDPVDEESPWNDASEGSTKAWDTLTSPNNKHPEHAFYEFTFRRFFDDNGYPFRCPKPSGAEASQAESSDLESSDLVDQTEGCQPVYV
As to the kind of experiment: Kinase inhibitory activity against LATS2 (ADP quantification). Particulars: ATP 400 μM, read-out: kinase inhibitory rate. In kind it is biochemical. The method, then: Evaluation of the inhibitory activity (calculation of kinase inhibitory rate) of the compound of the present invention against LATS1 and LATS2 (manufactured by Carna Biosciences) was performed. The activity was measured using the Kinase Assay method described below. The test concentration of the compound of the present invention was set such that the final concentration was 100 nM or 1000 nM.
As the analysis method of the data, the mean signal of the control well containing reaction components other than the compound of the present invention was set to 0% inhibition, the mean signal without enzyme addition was set to 100% inhibition, and the inhibition rate was calculated from the mean signal of 2 wells of each compound.
2 μL of a compound of the present invention solution at 2.5-fold concentration, 1 μL of substrate at 5-fold concentration (SGKtide: NH2-CKKRNRRLSVA-COOH, manufactured by SignalChem), ATP (manufactured by Sigma-Aldrich), MgCl2 (manufactured by FUJIFILM Wako Pure Chemical Corporation) solution (final concentration 10 μM, 400 μM and 5 mM, respectively), and 2 μL of kinase solution at 2.5-fold concentration (final concentration of LATS1 or LATS2 5 μg/mL), each prepared with assay buffer (20 mM HEPES, 0.01% Triton X-100, 2 mM DTT, 50 μg/mL BSA, pH 7.5), were mixed in the wells of a polypropylene 384-well plate (manufactured by Greiner Bio-One, #784900) and reacted at room temperature for 5 hr. To the solution was added 5 μL detection solution [Fluorospark (registered trade mark) Kinase/ADP Multi-Assay Kit; manufactured by FUJIFILM Wako Pure Chemical Corporation], and the mixture was reacted at room temperature for 30 min. Successively, 5 μL of a reaction quenching liquid [Fluorospark (registered trade mark) Kinase/ADP Multi-Assay Kit; manufactured by FUJIFILM Wako Pure Chemical Corporation] was added to discontinue the reaction. Thereafter, the ADP concentration of the reaction solution was quantified by EnSpire (manufactured by PerkinElmer) to detect the kinase reaction.

The test system of assay [1] is mouse partial liver resection model. As to the kind of experiment: Liver weight increase in mouse partial liver resection model. The class given is in vivo. Particulars: BALB/c mice; intraperitoneal, 4 times every 24 hr; about 30% of the liver removed; FIG. 2. As to the method:
A partial liver resection model in which the mouse liver was partially resected was prepared as described below, and the liver weight increasing effect of the compound of the present invention was evaluated by comparing the liver weight immediately after the resection with the liver weight 3 days after the resection.
A 0.5 w/v % methylcellulose aqueous solution (0.5% MC, manufactured by FUJIFILM Wako Pure Chemical Corporation) and A-007 were evaluated. A-007 was suspended in 0.5% MC, and prepared at a final concentration of 1 mg/mL.
Mice, BALB/cAnNCrlCrlj, 5-week-old, male, were purchased from CHARLES RIVER LABORATORIES JAPAN. In terms of the 0.5% MC administration-control group, 0.5% MC 10 mL/kg was administered intraperitoneally once, and 24 hr later, the entire liver was isolated and the liver weight was measured (n=3). As used herein, the control group means a group without removal of the liver. […]
Immediately after the second administration, the abdomen was opened under isoflurane (manufactured by Intervet Co., Ltd.) anesthesia, and the root of liver lobe was ligated with a suture thread, and about 30% of the liver was finally removed by excising the tip of the ligated liver lobe. After that, the abdomen was closed, and 24 hr after the final administration, the entire liver was removed and the liver weight was measured (n=3). […]

We go through two molecules from patent US20220144775A1, “HYDRAZIDE COMPOUND AND KINASE INHIBITOR” (NISSAN CHEMICAL CORPORATION, priority 2019, published 2022).

Regarding `CC/C(=N\NC(=O)C(C)Nc1cccnc1)c1ccc(O)c(C)c1O` (stereo not drawn) [A-004, (E)-N′-(1-(2,4-dihydroxy-3-methylphenyl)propylidene)-2-(pyridin-3-ylamino)propanehydrazide], the inhibition at 0.1 µM on LATS2 (final concentration 100 nM) was at least 40%. Moreover, the inhibition at 1 µM on LATS2 (final concentration 1000 nM) was at least 40%. Regarding `CC/C(=N\NC(=O)C(C)Nc1cncc(F)c1)c1ccc(O)c(C)c1O` (stereo not drawn) [A-007], the “changes in the liver weight ratio” value in assay [1] was “has an action of promoting a liver weight increase”.
